Reference: patent publication US5808139A (Ligand Pharmaceuticals Incorporated, priority 1994, dated 1998)
Entries after “also recorded” stand apart in the source; their conditions may differ.

Columns and labels:
[1] = Wall et al., J. Nat. Prod. 1989; cited from earlier work
[2] = test system: human progesterone receptor altered at the Tau-1 location; assay: Co-transfection assay in CV-1 cells, progesterone receptor altered at Tau-1, antagonist activity; type: cell-based
Method in brief: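 CV-1 cells co-transfected with RSV-LTR-driven human PR (altered at Tau-1) and a hormone-responsive luciferase reporter; antagonism measured against a fixed agonist concentration. Luciferase in cell extracts read, triplicate points, potency from concentration-response; […].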

T47D cells = assay: Alkaline phosphatase activity in T47D cells (induction and its inhibition); type: cell-based, human; details: ligand alone; three days
Excerpt: The functional activities of the cyclocymopol analogues in the human breast cell line, T47D, were also investigated. T47D cells have proven to be a particularly useful model to investigate the molecular actions of sex steroids because they contain endogenous functional receptors for, and respond to, progestins, and their respective antagonists. Moreover, these cells contain exceptionally high titers of progesterone receptors and are exquisitely sensitive to the actions of progestins in a manner quite similar to their actions in normal and neoplastic mammary epithelial cells. In T47D cells, progestins induce de novo synthesis of a plasma-associated alkaline phosphatase, which has been reported to be similar, if not identical, to the alkaline phosphatase present in the normal breast and human milk. These tests were conducted according to the following illustrative example. […] For routine induction of alkaline phosphatase, cells were treated for three days with two media changes and harvested as described below. […] Nuclei were sedimented at 2500 rpm, and the supernatant was saved as cytosol. The protein content of the cytosol was assayed by the method of Bradford. Alkaline phosphatase activity was determined by incubating one volume of cell extract with three volumes of 1 mg/ml p-nitrophenol phosphate prepared in DEAM (1M diethanolamine, pH=9, containing 2 mM magnesium chloride) at room temperature for 20 min. At the end of the incubation time, the reaction was stopped with an equal volume of 1N NaOH. Ten standards of p-nitrophenol were prepared in DEAM buffer and absorbance was read at 405 nm. Alkaline phosphatase activity is expressed as pmol p-nitrophenol formed/min/mg protein.

[3] = target: T1, human progesterone receptor (Homo sapiens, UniProt P06401); assay: Co-transfection (cis-trans) assay in CV-1 cells, agonist and antagonist mode; type: cell-based; design: expressed in transfected cells; host or cells: CV-1 cells (calcium phosphate transfection), whole cell extract; details: antagonist mode with 10^-8 M progesterone
T1 sequence (P06401 1-933): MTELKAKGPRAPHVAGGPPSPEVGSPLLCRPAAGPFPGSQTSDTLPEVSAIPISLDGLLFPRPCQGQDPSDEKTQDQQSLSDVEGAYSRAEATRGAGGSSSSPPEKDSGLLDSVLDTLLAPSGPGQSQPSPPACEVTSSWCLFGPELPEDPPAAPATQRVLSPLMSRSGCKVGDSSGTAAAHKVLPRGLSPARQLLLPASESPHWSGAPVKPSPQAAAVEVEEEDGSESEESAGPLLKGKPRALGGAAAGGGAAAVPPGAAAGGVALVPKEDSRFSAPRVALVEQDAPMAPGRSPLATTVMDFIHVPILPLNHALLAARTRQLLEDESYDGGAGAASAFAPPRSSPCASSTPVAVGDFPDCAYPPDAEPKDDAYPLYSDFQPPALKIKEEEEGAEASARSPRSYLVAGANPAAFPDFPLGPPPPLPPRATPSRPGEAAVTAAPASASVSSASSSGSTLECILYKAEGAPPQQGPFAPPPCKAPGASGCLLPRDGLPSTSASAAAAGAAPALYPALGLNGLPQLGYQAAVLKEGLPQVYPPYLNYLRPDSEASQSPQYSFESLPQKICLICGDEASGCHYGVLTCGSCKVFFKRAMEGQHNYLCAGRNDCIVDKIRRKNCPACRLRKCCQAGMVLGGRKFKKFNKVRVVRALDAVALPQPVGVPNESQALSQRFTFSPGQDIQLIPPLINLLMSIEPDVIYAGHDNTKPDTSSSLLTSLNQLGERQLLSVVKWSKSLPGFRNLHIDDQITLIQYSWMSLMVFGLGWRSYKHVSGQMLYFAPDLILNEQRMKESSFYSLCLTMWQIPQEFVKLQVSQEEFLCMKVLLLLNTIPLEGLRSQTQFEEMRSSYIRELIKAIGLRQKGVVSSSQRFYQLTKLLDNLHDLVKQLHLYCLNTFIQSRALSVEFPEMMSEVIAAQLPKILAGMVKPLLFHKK
Excerpt: This assay is described in further detail in U.S. Pat. Nos. 4,981,784 and 5,071,773, which are incorporated herein by reference. The co-transfection assay provides a method for identifying functional ligands (either agonists which mimic, or antagonists which inhibit, the effect of hormones) for ligand-responsive receptor proteins.
The co-transfection assay provides a mechanism to evaluate ability of a compound to function as an agonist or antagonist of the activity modulated by an intracellular receptor. The co-transfection assay mimics an in vivo system in the laboratory. In the co-transfection assay, a cloned gene for an intracellular receptor is introduced by transfection (a procedure to induce cells to take up foreign genes) into a background cell substantially devoid of endogenous intracellular receptors. This introduced gene directs the recipient cells to make the intracellular receptor protein. A second gene is also introduced (co-transfected) into the same cells in conjunction with the intracellular receptor gene. This second gene functions as a reporter for the transcription-modulating activity of the target intracellular receptor. The reporter acts as a surrogate for the products normally expressed by a gene under control of the target receptor and its natural hormone.
A preferred reporter gene is one which expresses the firefly enzyme luciferase. The co-transfection assay can detect small molecule agonists or antagonists of target intracellular receptors. Exposing the cells to an agonist ligand increases reporter activity in the transfected cells that can be conveniently measured, reflecting ligand-dependent, intracellular receptor-mediated increases in reporter transcription. To detect antagonists, the co-transfection assay is carried out in the presence of a constant concentration of an agonist known to induce a defined reporter signal. Increasing concentrations of a test antagonist will decrease the reporter signal. The co-transfection assay is therefore useful to detect both agonists and antagonists of specific intracellular receptors. It determines not only whether a compound interacts with a particular intracellular receptor, but also whether this interaction mimics (agonizes) or blocks (antagonizes) the effects of the natural regulatory molecules on target gene expression.
Co-transfected cells are exposed to a medium to which is added the potential ligand that is being evaluated. If the candidate ligand diffuses into the cell and binds to the receptor and the resulting complex functions as an agonist, it binds to the co-transfected reporter gene and initiates transcription. When that gene is one that expresses, for example, luciferase, luciferase is produced which catalyzes a light-emitting reaction with its substrate luciferin. Thus, after cell lysis and the introduction of luciferin, the amount of light produced relative to the concentration of candidate ligand used in the assay provides a measure of the potency and efficacy of the compound tested. Antagonist activity is evaluated by adding the candidate ligand and a known agonist to the co-transfected cells.
The receptor cDNA was introduced in a mammalian expression vector under the control of the Rous Sarcoma virus LTR. […] A reporter vector was also transfected, containing a firefly luciferase gene under the control of the hormone-responsive promoter. […] The level of luciferase activity was then measured in cell extracts. Light emission is directly proportional to the effectiveness of the hormone-receptor complex in activating gene expression.
A total of three replicates per concentration point were tested for each compound, and the EC50 was calculated for each positive response. Both agonist and antagonist activity for each test compound was determined in parallel.

[4] = target: T1, human progesterone receptor; assay: Progesterone receptor binding (displacement of 3H-progesterone, whole cell extract of transfected CV-1 cells); design: expressed in transfected cells; host or cells: CV-1 cells (calcium phosphate transfection), whole cell extract

IC50 ([2]; concentration required to reduce the maximal response by 50%, read-out: Potency (IC50), CV-1 cells) [nM]	Progesterone receptor agonist/antagonist activity [3]	Kd [4] [nM]	Molecule	Antimutagen activity [1]	Efficacy (% maximal response relative to RU-486), CV-1 cells ([2]; antagonist activity, relative to RU-486) [%]	Agonist activity, alkaline phosphatase induction (T47D cells)
–	–	–	4-isocymobarbatol	highly active antimutagens	–	–
> 10000	progesterone receptor agonist activity	325	C=C1CC[C@@H](Br)C(C)(C)[C@H]1Cc1cc(OC)c(Br)cc1O [SO-54, (3S)-cyclocymopol monomethyl ether]	–	< 20	functional agonists; also recorded: increased the activity of intracellular alkaline phosphatase in a concentration-dependent manner
–	–	–	CC1(C)[C@@H](Br)CC[C@@]2(C)Oc3cc(Br)c(O)cc3C[C@@H]12 [cymobarbatol]	highly active antimutagens	–	–
